{"source": "patent US20110294772A1", "about": "“USE OF CYCLOSQUARAMIDE COMPOUNDS AS ANTI-TUMOUR AGENTS” (priority 2008, published 2011)", "test_in_all_cases": "NCI60 panel IC50", "assay_type_in_all_cases": "cell-based", "key": {"RPMI-8226 (Leukaemia)": {"test_system": "RPMI-8226 (Leukaemia)", "settings": "Homo sapiens", "experimental": "(§1) On the other hand, the values of IC50 were determined in the panel of NCl60 cell lines for compound 10.\n(§2) A total of 2 independent experiments were carried out with assays in triplicate for the compound and cell line. All those assays where an IC50 value was not reached in the highest concentration of 1E-05 M are represented by “>1E-05”. In these cases, the standard deviation cannot be calculated and for that reason it is calculated as “-”."}, "HOP-92 (Lung)": {"test_system": "HOP-92 (Lung)", "settings": "Homo sapiens", "experimental": "as §1, §2"}, "HI-60 (Leukaemia)": {"test_system": "HI-60 (Leukaemia)", "settings": "Homo sapiens", "experimental": "as §1, §2"}, "SNB-19 (CNS)": {"test_system": "SNB-19 (CNS)", "settings": "Homo sapiens", "experimental": "as §1, §2"}, "TK-10 (Renal)": {"test_system": "TK-10 (Renal)", "settings": "Homo sapiens", "experimental": "as §1, §2"}, "A-498 (Renal)": {"test_system": "A-498 (Renal)", "settings": "Homo sapiens, A498", "experimental": "as §1, §2"}, "DU-145 (Prostate)": {"test_system": "DU-145 (Prostate)", "settings": "Homo sapiens", "experimental": "as §1, §2"}, "Sw-620 (Colon)": {"test_system": "Sw-620 (Colon)", "settings": "Homo sapiens", "experimental": "as §1, §2"}, "SN 12C (Renal)": {"test_system": "SN 12C (Renal)", "settings": "Homo sapiens, SN12C", "experimental": "as §1, §2"}, "Hs-578-T (Breast)": {"test_system": "Hs-578-T (Breast)", "settings": "Homo sapiens", "experimental": "as §1, §2"}, "SK-MEL-5 (Melanoma)": {"test_system": "SK-MEL-5 (Melanoma)", "settings": "Homo sapiens", "experimental": "as §1, §2"}, "SK-OV-3 (Ovarian)": {"test_system": "SK-OV-3 (Ovarian)", "settings": "Homo sapiens", "experimental": "as §1, §2"}, "SHP-77 (Lung)": {"test_system": "SHP-77 (Lung)", "settings": "Homo sapiens, SHP77", "experimental": "as §1, §2"}, "MDA-MB-468 (Breast)": {"test_system": "MDA-MB-468 (Breast)", "settings": "Homo sapiens", "experimental": "as §1, §2"}, "MDA-MB-231 (Breast)": {"test_system": "MDA-MB-231 (Breast)", "settings": "Homo sapiens", "experimental": "as §1, §2"}, "SF-295 (CNS)": {"test_system": "SF-295 (CNS)", "settings": "Homo sapiens", "experimental": "as §1, §2"}, "IGR-OVI (Ovarian)": {"test_system": "IGR-OVI (Ovarian)", "settings": "Homo sapiens", "experimental": "as §1, §2"}, "MDA-MB-435 S (Breast)": {"test_system": "MDA-MB-435 S (Breast)", "settings": "Homo sapiens", "experimental": "as §1, §2"}, "MOLT-4 (Leukaemia)": {"test_system": "MOLT-4 (Leukaemia)", "settings": "Homo sapiens", "experimental": "as §1, §2"}, "Caki-1 (Renal)": {"test_system": "Caki-1 (Renal)", "settings": "Homo sapiens", "experimental": "as §1, §2"}, "K-562 (Leukaemia)": {"test_system": "K-562 (Leukaemia)", "settings": "Homo sapiens, K562", "experimental": "as §1, §2"}, "ACHN (Renal)": {"test_system": "ACHN (Renal)", "settings": "Homo sapiens", "experimental": "as §1, §2"}, "U-251 (CNS)": {"test_system": "U-251 (CNS)", "settings": "Homo sapiens", "experimental": "as §1, §2"}, "CCRF-CEM (Leukaemia)": {"test_system": "CCRF-CEM (Leukaemia)", "settings": "Homo sapiens", "experimental": "as §1, §2"}, "UO-31 (Renal)": {"test_system": "UO-31 (Renal)", "settings": "Homo sapiens", "experimental": "as §1, §2"}, "COLO-205 (Colon)": {"test_system": "COLO-205 (Colon)", "settings": "Homo sapiens", "experimental": "as §1, §2"}, "SK-BR-3 (Breast)": {"test_system": "SK-BR-3 (Breast)", "settings": "Homo sapiens", "experimental": "as §1, §2"}, "SK-MEL-2 (Melanoma)": {"test_system": "SK-MEL-2 (Melanoma)", "settings": "Homo sapiens", "experimental": "as §1, §2"}, "UACC-62 (Melanoma)": {"test_system": "UACC-62 (Melanoma)", "settings": "Homo sapiens", "experimental": "as §1, §2"}, "M-14 (Melanoma)": {"test_system": "M-14 (Melanoma)", "settings": "Homo sapiens, M14", "experimental": "as §1, §2"}, "HCT-116 (Colon)": {"test_system": "HCT-116 (Colon)", "settings": "Homo sapiens", "experimental": "as §1, §2"}, "SF539 (Astrocytoma)": {"test_system": "SF539 (Astrocytoma)", "settings": "Homo sapiens, SF-539", "experimental": "as §1, §2"}, "EKVX (Lung)": {"test_system": "EKVX (Lung)", "settings": "Homo sapiens", "experimental": "as §1, §2"}, "NCI-H460 (Lung)": {"test_system": "NCI-H460 (Lung)", "settings": "Homo sapiens", "experimental": "as §1, §2"}, "NCI-H23 (Lung)": {"test_system": "NCI-H23 (Lung)", "settings": "Homo sapiens", "experimental": "as §1, §2"}, "SF-268 (CNS)": {"test_system": "SF-268 (CNS)", "settings": "Homo sapiens, 2 experiments in triplicate", "experimental": "as §1, §2"}, "RXF-393 (Renal)": {"test_system": "RXF-393 (Renal)", "settings": "Homo sapiens", "experimental": "as §1, §2"}, "MCF-7 (Breast)": {"test_system": "MCF-7 (Breast)", "settings": "Homo sapiens, MCF7", "experimental": "as §1, §2"}, "MALME-3M (Melanoma)": {"test_system": "MALME-3M (Melanoma)", "settings": "Homo sapiens", "experimental": "as §1, §2"}, "DMS-114 (Lung)": {"test_system": "DMS-114 (Lung)", "settings": "Homo sapiens", "experimental": "as §1, §2"}, "BT-549 (Breast)": {"test_system": "BT-549 (Breast)", "settings": "Homo sapiens", "experimental": "as §1, §2"}, "SW-480 (Colon)": {"test_system": "SW-480 (Colon)", "settings": "Homo sapiens, SW480", "experimental": "as §1, §2"}, "NCI-H226 (Lung)": {"test_system": "NCI-H226 (Lung)", "settings": "Homo sapiens", "experimental": "as §1, §2"}, "HOP-62 (Lung)": {"test_system": "HOP-62 (Lung)", "settings": "Homo sapiens", "experimental": "as §1, §2"}, "PC-3 (Prostate)": {"test_system": "PC-3 (Prostate)", "settings": "Homo sapiens", "experimental": "as §1, §2"}}, "data": [{"molecule": "CN1CCCNc2c(c(=O)c2=O)NCCCN(C)CCCNc2c(c(=O)c2=O)NCCCN(C)CCCNc2c(c(=O)c2=O)NCCCN(C)CCCNc2c(c(=O)c2=O)NCCCN(C)CCCNc2c(c(=O)c2=O)NCCC1", "note": "[Compound 10]", "values": [{"measurement": "IC50", "setting": "RPMI-8226 (Leukaemia)", "result": 8.97, "unit": "µM"}, {"measurement": "IC50", "setting": "HOP-92 (Lung)", "result": 3.53, "unit": "µM"}, {"measurement": "IC50", "setting": "HI-60 (Leukaemia)", "result": 2410, "unit": "nM"}, {"measurement": "IC50", "setting": "SNB-19 (CNS)", "result": 1810, "unit": "nM"}, {"measurement": "IC50", "setting": "TK-10 (Renal)", "result": 3.36, "unit": "µM"}, {"measurement": "IC50", "setting": "A-498 (Renal)", "result": 7.5, "unit": "µM"}, {"measurement": "IC50", "setting": "DU-145 (Prostate)", "result": 1800, "unit": "nM"}, {"measurement": "IC50", "setting": "Sw-620 (Colon)", "result": 9.41, "unit": "µM"}, {"measurement": "IC50", "setting": "SN 12C (Renal)", "result": 4.12, "unit": "µM"}, {"measurement": "IC50", "setting": "Hs-578-T (Breast)", "result": 7.79, "unit": "µM"}, {"measurement": "IC50", "setting": "SK-MEL-5 (Melanoma)", "result": 2750, "unit": "nM"}, {"measurement": "IC50", "setting": "SK-OV-3 (Ovarian)", "result": 3.1, "unit": "µM"}, {"measurement": "IC50", "setting": "SHP-77 (Lung)", "result": 2900, "unit": "nM"}, {"measurement": "IC50", "setting": "MDA-MB-468 (Breast)", "result": 2370, "unit": "nM"}, {"measurement": "IC50", "setting": "MDA-MB-231 (Breast)", "result": 2320, "unit": "nM"}, {"measurement": "IC50", "setting": "SF-295 (CNS)", "result": 5.52, "unit": "µM"}, {"measurement": "IC50", "setting": "IGR-OVI (Ovarian)", "result": 2380, "unit": "nM"}, {"measurement": "IC50", "setting": "MDA-MB-435 S (Breast)", "result": 3.66, "unit": "µM"}, {"measurement": "IC50", "setting": "MOLT-4 (Leukaemia)", "result": 1360, "unit": "nM"}, {"measurement": "IC50", "setting": "Caki-1 (Renal)", "result": 5.75, "unit": "µM"}, {"measurement": "IC50", "setting": "K-562 (Leukaemia)", "result": 4.07, "unit": "µM"}, {"measurement": "IC50", "setting": "ACHN (Renal)", "result": 3.25, "unit": "µM"}, {"measurement": "IC50", "setting": "U-251 (CNS)", "result": 7.86, "unit": "µM"}, {"measurement": "IC50", "setting": "CCRF-CEM (Leukaemia)", "result": 2090, "unit": "nM"}, {"measurement": "IC50", "setting": "UO-31 (Renal)", "result": 2170, "unit": "nM"}, {"measurement": "IC50", "setting": "COLO-205 (Colon)", "result": 3.23, "unit": "µM"}, {"measurement": "IC50", "setting": "SK-BR-3 (Breast)", "result": 308, "unit": "nM"}, {"measurement": "IC50", "setting": "SK-MEL-2 (Melanoma)", "result": 3.29, "unit": "µM"}, {"measurement": "IC50", "setting": "UACC-62 (Melanoma)", "result": 1340, "unit": "nM"}, {"measurement": "IC50", "setting": "M-14 (Melanoma)", "result": 7.21, "unit": "µM"}, {"measurement": "IC50", "setting": "HCT-116 (Colon)", "result": 2980, "unit": "nM"}, {"measurement": "IC50", "setting": "SF539 (Astrocytoma)", "result": 3.52, "unit": "µM"}, {"measurement": "IC50", "setting": "EKVX (Lung)", "result": 2750, "unit": "nM"}, {"measurement": "IC50", "setting": "NCI-H460 (Lung)", "result": 6.88, "unit": "µM"}, {"measurement": "IC50", "setting": "NCI-H23 (Lung)", "result": 3.02, "unit": "µM"}, {"measurement": "IC50", "setting": "SF-268 (CNS)", "result": 5.61, "unit": "µM"}, {"measurement": "IC50", "setting": "RXF-393 (Renal)", "result": 2770, "unit": "nM"}, {"measurement": "IC50", "setting": "MCF-7 (Breast)", "result": 4.67, "unit": "µM"}, {"measurement": "IC50", "setting": "MALME-3M (Melanoma)", "result": 9.28, "unit": "µM"}, {"measurement": "IC50", "setting": "DMS-114 (Lung)", "result": 8.72, "unit": "µM"}, {"measurement": "IC50", "setting": "BT-549 (Breast)", "result": 2210, "unit": "nM"}, {"measurement": "IC50", "setting": "SW-480 (Colon)", "result": 1800, "unit": "nM"}, {"measurement": "IC50", "setting": "NCI-H226 (Lung)", "result": 1530, "unit": "nM"}, {"measurement": "IC50", "setting": "HOP-62 (Lung)", "result": 6.37, "unit": "µM"}, {"measurement": "IC50", "setting": "PC-3 (Prostate)", "result": 2460, "unit": "nM"}]}]}
